Data: ChEMBL document CHEMBL3232776, “Emergence of pyrido quinoxalines as new family of antimalarial agents” (Eur J Med Chem, 2014)
Active and inactive are the calls of the source. The calls are words filed in the database; no cut-off is given here.

Legend:
[1] = test system: Plasmodium falciparum; experiment: Antimalarial activity against blood stage form of Plasmodium falciparum assessed as incorporation of [3H]hypoxanthine after 72 hrs by liquid scintillation counting; type: functional, organism-based
[2] = test system: Plasmodium falciparum; experiment: Antimalarial activity against chloroquine-sensitive Plasmodium falciparum 3D7 infected in human erythrocytes assessed as parasite growth inhibition after 50 hrs by SYBR Green1 dye-based fluorescence assay; type: functional, organism-based
[3] = test system: Plasmodium falciparum; experiment: Potency index, ratio of ciprofloxacin IC50 to compound IC50 for chloroquine-sensitive Plasmodium falciparum 3D7 infected in human erythrocytes; type: functional
[4] = test system: Plasmodium falciparum; experiment: Potency index, ratio of ciprofloxacin IC50 to compound IC50 for chloroquine-resistant Plasmodium falciparum Dd2 infected in human erythrocytes; type: functional
[5] = test system: Plasmodium falciparum; experiment: Antimalarial activity against chloroquine-resistant Plasmodium falciparum Dd2 infected in human erythrocytes assessed as parasite growth inhibition after 50 hrs by SYBR Green1 dye-based fluorescence assay; type: functional, cell-based; conditions: Dd2, 50 h
[6] = Solubility of the compound at 93 uM; type: physicochemical
[7] = test system: HepG2; experiment: Cytotoxicity against human HepG2 cells assessed as cell viability after 72 hrs by MTT assay; type: cell-based; conditions: HepG2, 72 h
[8] = test system: THP-1; experiment: Cytotoxicity against human THP1 cells assessed as cell viability after 72 hrs by MTT assay; type: cell-based; conditions: THP-1, 72 h
[9] = Selectivity index, ratio of IC50 for human HepG2 cells to IC50 for chloroquine-sensitive Plasmodium falciparum 3D7; type: toxicity, cell-based; conditions: read-out: Ratio IC50
[10] = Selectivity index, ratio of IC50 for human THP1 cells to IC50 for chloroquine-sensitive Plasmodium falciparum 3D7; type: toxicity, cell-based, THP-1; conditions: read-out: Ratio IC50
[11] = Plasmodium falciparum, 3D7, 50 h, read-out: IC50

Compound	IC50 [2, 11] [µM]	Ratio IC50 [3]	Ratio IC50 [4]	further results
Cc1c(F)c(N2CCNC(C)C2)cc2c1c(=O)c(C(=O)O)cn2C1CC1 (stereo not drawn) [GREPAFLOXACIN]				IC50 [1]: 20 µM
CCCCn1cc(C(=O)OCC)c(=O)c2c3nc(-c4ccccc4)c(-c4ccccc4)nc3ccc21	9.17	2	2	
C#CCn1cc(C(=O)OCC)c(=O)c2c3nc(-c4ccc(F)cc4)c(-c4ccc(F)cc4)nc3ccc21	18.7	2	2	
CCOC(=O)c1cnc2ccc3nc(-c4ccccc4)c(-c4ccccc4)nc3c2c1O	29.8			
CCOC(=O)c1cnc2ccc3nc(-c4ccc(F)cc4)c(-c4ccc(F)cc4)nc3c2c1O	15.7			IC50 [5]: 26.9 µM
O=C(O)c1cn(Cc2ccc(F)cc2)c2ccc3nc(-c4ccc(F)cc4)c(-c4ccc(F)cc4)nc3c2c1=O	> 50			
CCOC(=O)C(=CNc1ccc2nc(-c3ccc(F)cc3)c(-c3ccc(F)cc3)nc2c1)C(=O)OCC	21.3			
C#CCn1cc(C(=O)O)c(=O)c2c3nc(-c4ccccc4)c(-c4ccccc4)nc3ccc21				growth inhibition (GI) [2]: inactive; solubility [6]: Insoluble
CCOC(=O)c1cn(Cc2ccc(F)cc2)c2ccc3nc(-c4ccccc4)c(-c4ccccc4)nc3c2c1=O	6.94	3.3	3.3	IC50 [5]: 6.27 µM; IC50 [7]: 150 µM; IC50 [8]: 200 µM; selectivity ratio [9]: 21.6; selectivity ratio [10]: 28.8
O=C(O)c1cn(Cc2ccc(C(F)(F)F)cc2)c2ccc3nc(-c4ccc(F)cc4)c(-c4ccc(F)cc4)nc3c2c1=O	> 50			
CCOC(=O)c1cn(CC)c2ccc3nc(-c4ccccc4)c(-c4ccccc4)nc3c2c1=O	15.4	2	2	IC50 [5]: 11.3 µM
CCn1cc(C(=O)O)c(=O)c2cc(F)c(N3CCNCC3)nc21 [ENOXACIN]				IC50 [1]: 20 µM
CCOC(=O)c1cn(CC(F)(F)F)c2ccc3nc(-c4ccccc4)c(-c4ccccc4)nc3c2c1=O	13.1	2	2	
CCCCn1cc(C(=O)O)c(=O)c2c3nc(-c4ccc(F)cc4)c(-c4ccc(F)cc4)nc3ccc21	40.4			
O=C(O)c1cn(CC(F)(F)F)c2ccc3nc(-c4ccc(F)cc4)c(-c4ccc(F)cc4)nc3c2c1=O	> 50			
O=C(O)c1cn(Cc2ccc(C(F)(F)F)cc2)c2ccc3nc(-c4ccccc4)c(-c4ccccc4)nc3c2c1=O				growth inhibition (GI) [2]: inactive; solubility [6]: Insoluble
C#CCn1cc(C(=O)O)c(=O)c2c3nc(-c4ccc(F)cc4)c(-c4ccc(F)cc4)nc3ccc21	> 50			

Compound	IC50 [2, 11] [µM]	Ratio IC50 [3]	Ratio IC50 [4]	further results
NC1CCN(c2c(F)cc3c(=O)c(C(=O)O)cn(C4CC4)c3c2Cl)C1 (stereo not drawn) [CLINAFLOXACIN]				IC50 [1]: 20 µM
CCOC(=O)c1cn(Cc2ccc(F)cc2)c2ccc3nc(-c4ccc(F)cc4)c(-c4ccc(F)cc4)nc3c2c1=O	7.59	2	2	IC50 [5]: 7.11 µM; IC50 [7]: 200 µM; IC50 [8]: 140 µM; selectivity ratio [9]: 26.4; selectivity ratio [10]: 18.4
O=C(O)c1cn(CC(F)(F)F)c2ccc3nc(-c4ccccc4)c(-c4ccccc4)nc3c2c1=O				growth inhibition (GI) [2]: inactive; solubility [6]: Insoluble
CCOC(=O)c1cn(Cc2ccc(C(F)(F)F)cc2)c2ccc3nc(-c4ccc(F)cc4)c(-c4ccc(F)cc4)nc3c2c1=O	> 50	2	2	
CCOC(=O)c1cn(Cc2ccc(C(F)(F)F)cc2)c2ccc3nc(-c4ccccc4)c(-c4ccccc4)nc3c2c1=O		2	2	IC50 [2]: ND(Insoluble); solubility [6]: Insoluble
C#CCn1cc(C(=O)OCC)c(=O)c2c3nc(-c4ccccc4)c(-c4ccccc4)nc3ccc21		2	2	IC50 [2]: ND(Insoluble); solubility [6]: Insoluble
O=C(O)c1cn(Cc2ccc(F)cc2)c2ccc3nc(-c4ccccc4)c(-c4ccccc4)nc3c2c1=O				growth inhibition (GI) [2]: inactive; solubility [6]: Insoluble
CCCCn1cc(C(=O)OCC)c(=O)c2c3nc(-c4ccc(F)cc4)c(-c4ccc(F)cc4)nc3ccc21	> 50	2	2	
CCOC(=O)C(=CNc1ccc2nc(-c3ccccc3)c(-c3ccccc3)nc2c1)C(=O)OCC	16			IC50 [5]: 15.5 µM
CCCCn1cc(C(=O)O)c(=O)c2c3nc(-c4ccccc4)c(-c4ccccc4)nc3ccc21				growth inhibition (GI) [2]: inactive; solubility [6]: Insoluble
CCOC(=O)c1cn(CC)c2ccc3nc(-c4ccc(F)cc4)c(-c4ccc(F)cc4)nc3c2c1=O	32.2	2	2	
CCn1cc(C(=O)O)c(=O)c2c3nc(-c4ccccc4)c(-c4ccccc4)nc3ccc21				growth inhibition (GI) [2]: inactive; solubility [6]: Insoluble
COc1cccc2c1C(=O)c1c(O)c3c(c(O)c1C2=O)C[C@@](O)(C(=O)CO)C[C@@H]3O[C@H]1C[C@H](N)[C@H](O)[C@H](C)O1 [DOXORUBICIN]				IC50 [7]: 0.2 µM; IC50 [8]: 0.05 µM
O=C(O)c1cn(C2CC2)c2cc(N3CCNCC3)c(F)cc2c1=O [CIPROFLOXACIN]	23.1			IC50 [5]: 33.9 µM; IC50 [8]: 60.5 µM; selectivity ratio [10]: 2.61; IC50 [1]: 20 µM
CCn1cc(C(=O)O)c(=O)c2c3nc(-c4ccc(F)cc4)c(-c4ccc(F)cc4)nc3ccc21	> 50			
CCOC(=O)c1cn(CC(F)(F)F)c2ccc3nc(-c4ccc(F)cc4)c(-c4ccc(F)cc4)nc3c2c1=O	3.92	5	5	IC50 [5]: 4.6 µM; IC50 [7]: 250 µM; IC50 [8]: 275 µM; selectivity ratio [9]: 63.8; selectivity ratio [10]: 70.2
